Laboratory results taken from patent US20110039935A1, “USE OF PHARMACOLOGICALLY ACTIVE CHEMICAL COMPOUNDS” (ENTRESS AB, priority 2007, published 2011).
“Also recorded” adds a separate entry of the source.

Legend:
[1] = test system: abdominal aorta sections of elderly mice; conditions: for elasticity of aorta sections (elastic recoil), first series of stretches: control 3.3×10^−5; for decrease in elastic recoil, second versus first series: repeated stretching protocol, control approximately 90%
Experimental: This time, experimental subjects that were in need of increased artery elasticity for a more general reason, namely advanced age, were studied.
Female NMRI mice, aged 50 weeks at the start of the trial, were housed at the animal facilities of the Department of Cell & Organism Biology, Lund University, Sweden. The animals were raised under the same conditions with a 12/12 hour light-dark cycle. Mice were fed rodent pellets ad libitum (Altromin no. 1314 Spezialfutterwerke, Lage, Germany) and given free access to drinking water. […] Mice allocated to Group 3 were only fed rodent pellets and were considered to be the Control group (n=6). The level of AKG fed as a supplement to the diet represented 2% of the voluntary feed intake of the mice, which was approx. 10-15% of body weight per day.
The mice were anaesthetized by exposure to 95% CO2 and killed by cervical dislocation. A dissected portion of the abdominal aorta, prior to the right- and left common iliac arteries, was carefully cleaned to remove adhering tissues. The aorta was cut into approx. 4.5 mm pieces with a diameter at rest of approx. 1 mm, and each piece was then securely attached at one end to a force transducer and at the other to a metal pin on a mounting block, as described in part (Harrison et al. Reprod Fertil Dev. 1997; 9(7):731-40, Harrison and Flatman Am J Physiol. 1999 December; 277(6 Pt 2):R1646-53).
Aorta sections were immersed into oxygenated and thermostatically controlled chambers (37° C.), having an internal depth and diameter of 5.5 and 3.2 cm, respectively, and holding 44 ml of phosphate buffered saline (0.15 M PBS, pH 7.4) comprising in mM; NaCl 136.91, KCl 2.68, Na2HPO4 8.08 and NaH2PO4 1.66. Force was measured using a FTO3 force displacement transducer (Grass Instrument, West Warwick, R.I.) connected to a home-built bridge amplifier which was interfaced with a 8S PowerLab A/D Converter (ADInstruments, Chalgrove, Oxfordshire, UK). […] The PowerLab 8S A/D converter was connected to an iBook G4 running Chart v.5.4 Software (AD Instruments, Australia). The data recording was at a sampling speed of 40.000 data samples per second (40 KHz) and the input impedance of the amplifier was 200 MΩ differential
Aorta sections were suspended vertically, and in duplicate. The recorded signal was adjusted to zero for un-tensioned aorta sections with the aid of an offset dial mounted on the pre-amplifier unit. Each aorta section was then exposed to approx. 5 step-wise increases in tension (each step being approx. 0.09 N), until a final maximal tension of 0.49 N (measured using the FT03 Grass Force transducer) was achieved. […] The aorta sections were then allowed to relax totally before being exposed to repeat step-wise increases in tension a further two more times, in close succession. Aorta sections were subsequently removed and weighed.
This fall in the recording trace was measured over time using the Average Slope calculation available as part of Chart v.5.4 Software (AD Instruments, Australia).
(§1) LaPlace's equation assumes the tension (T) in the wall of a hollow cylinder is directly proportional to the cylinders radius (r) and the pressure (p) across the wall, caused by the flow inside the cylinder, such that T=p×r. If one assumes that the tension in the wall of the aorta sections is equivalent to that recorded by the force transducer as the result of a manual stretch, then the pressure that would have given rise to such an increase in tension can be calculated using LaPlace's equation and the measured radius of each aorta section.

[2] = test system: excised aorta sections of elderly mice; experiment: Robustness of aorta sections to stretch (successful stretches without rupture); assay type: in vivo, NMRI mice; conditions: for number of successful stretches without rupture, First Replicate / number of successful stretches without rupture, Second Replicate: 0.49 N max. tension stepwise, control 4 out of 6; for successful stretches without rupture, Mean (%): mean of two replicates, control 66.7
Experimental: Female NMRI mice, aged 50 weeks at the start of the trial, were housed at the animal facilities of the Department of Cell & Organism Biology, Lund University, Sweden. The animals were raised under the same conditions with a 12/12 hour light-dark cycle. Mice were fed rodent pellets ad libitum (Altromin no. 1314 Spezialfutterwerke, Lage, Germany) and given free access to drinking water. […] Mice in Group 1 were fed rodent pellets plus (2% w/v) Na2−AKG 2H2O (n=6), whilst mice in Group 2 were fed rodent pellets plus (2% w/v) Ca−AKG H2O (n=6). Mice allocated to Group 3 were only fed rodent pellets and were considered to be the Control group (n=6). The level of AKG fed as a supplement to the diet represented 2% of the voluntary feed intake of the mice, which was approx. 10-15% of body weight per day.
Aorta sections were suspended vertically, and in duplicate. The recorded signal was adjusted to zero for un-tensioned aorta sections with the aid of an offset dial mounted on the pre-amplifier unit. Each aorta section was then exposed to approx. 5 step-wise increases in tension (each step being approx. 0.09 N), until a final maximal tension of 0.49 N (measured using the FT03 Grass Force transducer) was achieved. This final level of tension was by no means close to the physiological maximum force recorded in aorta sections. The aorta sections were then allowed to relax totally before being exposed to repeat step-wise increases in tension a further two more times, in close succession. Aorta sections were subsequently removed and weighed.
In all the arteries studied, the initial stretch series (e.g. application of tension followed by relaxation) led to a decrease in elasticity with subsequent applications of tension. This effect may be compared to the sort of damage that would be expected to arise with a sudden increase in blood pressure (see FIG. 5).

[3] = test system: abdominal aorta sections of bypass and sham operated rats; experiment: Elastic recoil of aorta sections from bypass- and sham-operated rats given AKG; assay type: in vivo, Sprague Dawley rats
Experimental: A dissected portion of the abdominal aorta, prior to the right- and left common iliac arteries, was carefully cleaned to remove adhering tissues.
Force was measured using a FTO3 force displacement transducer (Grass Instrument, West Warwick, R.I.) connected to a home-built bridge amplifier which was interfaced with a 8S PowerLab A/D Converter (ADInstruments, Chalgrove, Oxfordshire, UK).
The recorded signal was adjusted to zero for un-tensioned aorta sections with the aid of an offset dial mounted on the pre-amplifier unit. Each aorta section was then exposed to approx. 5 step-wise increases in tension (each step being approx. 0.09 N), until a final maximal tension of 0.49 N (measured using the FT03 Grass Force transducer) was achieved. […] Aorta sections were subsequently removed and weighed.
as §1
Data are presented as mean±SE.

[4] = elderly mice fed 2% w/v in pellets for 182 days, n=6, mean±SE

SMILES: O=C([O-])CCC(=O)C(=O)[O-].[Ca+2] [Ca−AKG, calcium alpha-ketoglutarate]
- elasticity of aorta sections (elastic recoil), first series of stretches [1, 4]: 6.4×10^−5±2.7×10^−6 N ms^−1 mg^−1 wet wt
- effect compared to Na−AKG group ([1]; elderly mice, arterial elasticity): better effects
- effect on arterial elasticity compared with the control mice ([1]; elderly mice, first stretch series (FIG. 4)): significant effect
- decrease in elastic recoil, second versus first series [1]: 94%
- number of successful stretches without rupture, First Replicate [2]: 4 out of 6
- number of successful stretches without rupture, Second Replicate [2]: 5 out of 6
- successful stretches without rupture, Mean (%) [2]: 75.0%

SMILES: O=C(O)CCC(=O)C(=O)O [AKG, alpha-ketoglutaric acid]
- effect of AKG-intake on arterial elasticity in bypass-operated rats ([3]; B+AKG versus B−AKG, P=0.047): significant effect; also recorded: positive effect
- effect of AKG-intake on aorta elasticity in sham-operated control rats ([3]; S+AKG versus S−AKG, P=0.44): no effect

SMILES: O=C([O-])CCC(=O)C(=O)[O-].[Na+].[Na+] [Na−AKG, sodium alpha-ketoglutarate]
- elasticity of aorta sections (elastic recoil), first series of stretches [1, 4]: 4.3×10^−5±1.6×10^−6 N ms^−1 mg^−1 wet wt
- elasticity of aorta sections (elastic recoil), second series of stretches ([1]; elderly mice fed 2% w/v in pellets for 182 days, n=6, mean±SE, control 3.4×10^−6): 3.7×10^−6±1.1×10^−6 N ms^−1 mg^−1 wet wt
- decrease in elastic recoil, second versus first series [1]: 91%
- number of successful stretches without rupture, First Replicate [2]: 4 out of 6
- number of successful stretches without rupture, Second Replicate [2]: 5 out of 6
- successful stretches without rupture, Mean (%) [2]: 75.0%
- uptake after enteral administration: faster uptake after enteral administration with higher peak blood levels
